In patent US20250312468A1, “ANTI-PROTAC ANTIBODIES AND COMPLEXES” (Merck Patent GmbH, priority 2021, published 2025):

How the values were obtained:
MIC2 = experiment: SPR binding of PROTACs to immobilized antibody MIC2; settings: MIC2, 1:1 kinetic binding model
Experimental: The binding affinities of hit antibodies MIC1 and MIC2 to a diverse set of VH032-based PROTACs (FIGS. 8A-8B) was determined by surface plasmon resonance (SPR) in a Biacore T200 instrument. The running buffer consist of PBS, 0.05% Tween-20, 2% DMSO and temperature and flow rate were set to 30° C. and 30 μL/min, respectively. The assay setup is depicted exemplarily in FIG. 7A. CM5 sensor chips were coated with antibody (=ligand; 2500 RU) using standard EDC/NHS chemistry. PROTACs (=analytes) were serially diluted (1 μM-1.9 nM) in running buffer, injected to the instrument in consecutive runs and were captured by the antibody resulting in an increase of the corresponding SPR response. After the association step (300 s), running buffer was injected for 600 s and the PROTAC dissociated from the antibody leading to signal decrease. After each run, residual bound PROTAC was removed from the immobilized antibody by injection of 10 mM glycine/HCl, pH 1.5 for 2×30 s regenerating the antibody for the next association and dissociation cycle. To compensate for matrix effects, the measured SPR response signal was subtracted by the analyte response to an inactivated (EDC/NHS, ethanol amine) reference surface omitting the ligand. Furthermore, a DMSO solvent correction was performed and analyte response was subtracted by the running buffer signal. The corrected response was fitted by a 1:1 kinetic binding model yielding the on- (kon) and off-rate (koff) of the PROTAC, as well as its dissociation constant (KD).

CD33xMIC6 = experiment: SPR affinity of VHH clone (antibody fusion) to PROTACs; settings: CD33xMIC6 immobilized, 25° C., read-out: KD [M] for antibody binding to PROTAC
Experimental: (§1) The kinetic and affinity parameters of protein-PROTAC interactions were evaluated by SPR. The anti-PROTAC VHH clones MIC5-MIC14 were immobilized as CD33 or CLL1 antibody fusion (the manufacturing of fusion proteins and the used linker is described in chapter 7.9) onto a CM5 (Series S) sensor chip via the standard amine coupling procedure, at 25° C. Prior to immobilization, the carboxymethylated surface of the chip was activated with 400 mM 1-ethyl-3-(3-dimethylaminopropyl)-carbodiimide and 100 mM N-hydroxysuccinimide for 7 min. Hit anti-PROTAC VHH as CD33 and CLL1 antibody fusions were diluted to 10 μg/ml in 10 mM Acetate at pH 4.5 and immobilized on the activated surface chip for 7 min, in order to reach 3,000 to 6,000 response units (RU). The remaining activated carboxymethylated groups were blocked with a 10 min injection of 1 M ethanolamine pH 8. HBS-N, which consists of 10 mM HEPES pH 7.4 and 150 mM NaCl, was used as the background buffer during immobilization. PROTACs were prediluted in DMSO, diluted 1:50 in running buffer (12 mM phosphate pH 7.4, 137 mM NaCl, 2.7 mM KCl, 0.05% Tween20, 2% DMSO) and injected at ten different concentrations using two-fold dilution series, from 1 μM to 0.002 μM. A DMSO solvent correction (1%-3%) was performed to account for variations in bulk signal and to achieve high-quality data. Interaction analysis cycles consisted of a 300 sec sample injection (30 μL/min; association phase) followed by 900 sec of buffer flow (dissociation phase).
(§2) All sensorgrams were processed by first subtracting the binding response recorded from the control surface (reference flow-channel), followed by subtracting of the buffer blank injection from the active flow-channel (target protein immobilized). All datasets were fit to a simple 1:1 Langmuir interaction model to determine the kinetic rate constants. Experiments were performed on a Biacore 8k+ (Cytiva, Uppsala, Sweden) at 25° C. and the interactions were evaluated using the provided Biacore Insight Evaluation software.

CD33xMIC11 = experiment: as above; settings: CD33xMIC11 immobilized, 25° C., read-out: KD [M] for antibody binding to PROTAC
Experimental: as §1, §2

CD33xMIC14 = experiment: as above; settings: CD33xMIC14 immobilized, 25° C., read-out: KD [M] for antibody binding to PROTAC
Experimental: as §1, §2

CD33xMIC5 = experiment: as above; settings: CD33xMIC5 immobilized, 25° C., read-out: KD [M] for antibody binding to PROTAC
Experimental: as §1, §2

CD33xMIC10 = experiment: as above; settings: CD33xMIC10 immobilized, 25° C., read-out: KD [M] for antibody binding to PROTAC
Experimental: as §1, §2

CD33xMIC13 = experiment: as above; settings: CD33xMIC13 immobilized, 25° C., read-out: KD [M] for antibody binding to PROTAC
Experimental: as §1, §2

CD33xMIC9 = experiment: as above; settings: CD33xMIC9 immobilized, 25° C., read-out: KD [M] for antibody binding to PROTAC
Experimental: as §1, §2

CD33xMIC12 = experiment: as above; settings: CD33xMIC12 immobilized, 25° C., read-out: KD [M] for antibody binding to PROTAC
Experimental: as §1, §2

CD33xMIC7 = experiment: as above; settings: CD33xMIC7 immobilized, 25° C., read-out: KD [M] for antibody binding to PROTAC
Experimental: as §1, §2

CD33xMIC8 = experiment: as above; settings: CD33xMIC8 immobilized, 25° C., read-out: KD [M] for antibody binding to PROTAC
Experimental: as §1, §2

[1] = PK study of CD33-based VHH fusions and PAX in C57BL/6N mice; assay type: in vivo, mouse; settings: analyte tAntibody, 30 mg/kg i.v., mean
Experimental: Additionally, the PAX CD33xMIC5+GNE987 and CD33xMIC7+GNE987 were generated with a theoretical loading of 100% and investigated in PK studies conducted in C57BL/6N inbred mice (N=2 males and females for each group) provided by Charles River Laboratories Italia, Calco, Italy. The 7-8-week-old mice received 30 mg/kg (corresponding to 0.38 mg/kg PROTAC) of CD33xMIC5+GNE987 and CD33xMIC7+GNE987, CD33 antibody alone, CD33xMIC5 or CD33xMIC7 as single dose, that was intravenously injected into the tail vein. Samples have been serially collected from all animals using a microsampling technique ([…] for each blood withdrawal). After administration, two blood samples were taken on the first day and 7 during the three weeks later. Each sample was collected in pre-chilled (0-4° C.) Minivette POCT EDTA tube, transferred in Microvette CB300 EDTA and centrifuged at 2500×g for 10 min at 4° C. The obtained plasma was transferred into a new vial and immediately stored at −80° C. until further analyses. The PK study, animal handling and experimentation, was conducted in accordance with the Italian D.Lvo. 2014/26 and Directive 2010/63/EU. The study was performed at the Instituto di Ricerche Biomediche Antoine Marxer, Colleretto Giacosa, Italy. The institute is fully authorized by the Italian Ministry of Health.
The total antibody concentration was determined by ligand binding assay (LBA) based on the Meso Scale Diagnostics technology (MSD, LLC., Rockville, MD). All incubation steps were performed at 22° C. with gentle agitation. All washing steps (200 μL/well) were performed with PBS-T, containing PBS pH 7.4 and 0.01% Tween 20, using the plate washer ELx405 (BioTek instruments Inc., Winooski, VT). First, 2.5 μg/mL biotin-SP-conjugated AffiniPure goat anti-human IgG, Fcγ fragment specific (Jackson ImmunoResearch Europe Ltd., JIR, Cambridgeshire, United Kingdom, #109-065-098) was coated on MSD GOLD 96-well Streptavidin QUICKPLEX Plates (MSD, #L55SA) for 2 h. Afterwards, plates were washed three times. Plasma samples, standards and quality controls were serially diluted in dilution buffer, consisting of PBS pH 7.4, 0.05% Tween 20 and 3.0% (w/v) BSA, and incubated on the plates for 1 h. The plates were washed again and incubated for 1 h with 0.6 μg/ml mouse anti-human IgG, F(ab′)2 fragment specific (JIR, #209-005-097), previously labeled with MSD GOLG SULFO-TAG (MSD, #R31AA-1) according to the manufacturing procedure. After a final washing step, 150 μL of 2×MSD Read Buffer T with surfactant (MSD, #R92TC) was added to each well and plates were read on a MESO Quickplex SQ120 plate reader (MSD). The Software Watson LIMS (Version 7.5, ThermoFisher Scientific Inc.) was used to fit the standard curve with a 5PL (Marquart) equations, weighting factor 1/Y2, and to calculate the total mAb concentration of the plasma samples. The lower limit of quantification (LLOQ) was 50 ng/ml. The concentration of MSC2734242 was determined by liquid chromatography tandem mass spectrometry (LC-MS/MS) using a SCIEX 5500 triple quadrupole with Turbo Ion Spray source (ITS) in positive modality (SCIEX, Redwood City, CA, USA). Chromatographic separation was achieved using a Waters ACQUITY UPLC BEH (C18, 2.1×50 mm, 1.7 μm) column, mounted in a Waters ACQUITY I-class UPLC system (Milford, MA, USA), configured with a 100 μL extension loop. […]

Compound: Cc1ncsc1-c1ccc(CNC(=O)[C@@H]2C[C@@H](O)CN2C(=O)[C@@H](NC(=O)C2(F)CC2)C(C)(C)C)c(OCCOc2ccc(CN3CCN(c4cc(-c5ccccc5O)nnc4N)CC3)cc2)c1 [ACBI1]
- Kd (MIC2): > 1000 nM
- Kd (CD33xMIC6): 6.5e-06 M
- Kd (CD33xMIC11): 0.00011 M
- Kd (CD33xMIC14): 9.3e-07 M
- Kd (CD33xMIC5): 2.5e-06 M
- Kd (CD33xMIC10): 8.5e-06 M
- Kd (CD33xMIC13): 9.3e-05 M

Compound: CC(=O)N[C@H](C(=O)N1C[C@H](O)C[C@H]1C(=O)NCc1ccc(-c2scnc2C)cc1)C(C)(C)SCCCCCCNC(=O)C[C@@H]1N=C(c2ccc(Cl)cc2)c2c(sc(C)c2C)-n2c(C)nnc21 [AT1]
- Kd (MIC2): 6 nM
- koff (MIC2): NM/1.90E−03 1/s
- kon (MIC2): NM/3.10E+05 1/Ms
- Kd (CD33xMIC6): 7.3e-09 M
- Kd (CD33xMIC11): 1.9e-10 M
- Kd (CD33xMIC14): 2.9e-09 M
- Kd (CD33xMIC9): 1.4e-09 M
- Kd (CD33xMIC12): 1.7e-09 M
- Kd (CD33xMIC7): 2.1e-09 M
- Kd (CD33xMIC5): 2.4e-09 M
- Kd (CD33xMIC10): 2.4e-09 M
- Kd (CD33xMIC8): 5.2e-09 M
- Kd (CD33xMIC13): 1.7e-09 M

Compound: CC(=O)N1c2ccc(-c3ccc(C(=O)NCCOCCOCCOCC(=O)N[C@H](C(=O)N4C[C@H](O)C[C@H]4C(=O)NCc4ccc(-c5scnc5C)cc4)C(C)(C)C)cc3)cc2[C@H](Nc2ccc(Cl)cc2)C[C@@H]1C [MZP54]
- Kd (MIC2): 0.42 nM
- koff (MIC2): NM/8.40E−05 1/s
- kon (MIC2): NM/2.00E+05 1/Ms

Compound: CC(=O)N1c2ccc(-c3ccc(C(=O)NCCOCCOCCOCCOCC(=O)N[C@H](C(=O)N4C[C@H](O)C[C@H]4C(=O)NCc4ccc(-c5scnc5C)cc4)C(C)(C)C)cc3)cc2[C@H](Nc2ccc(Cl)cc2)C[C@@H]1C [MZP55]
- Kd (MIC2): 0.63 nM
- koff (MIC2): NM/7.40E−05 1/s
- kon (MIC2): NM/1.20E+05 1/Ms

Compound: Cc1nc(Nc2ncc(C(=O)Nc3c(C)cccc3Cl)s2)cc(N2CCN(C(=O)CCCCCCC(=O)N[C@H](C(=O)N3C[C@H](O)C[C@H]3C(=O)NCc3ccc(-c4scnc4C)cc3)C(C)(C)C)CC2)n1 [SIAIS178]
- Kd (MIC2): 0.41 nM
- koff (MIC2): NM/4.25E−05 1/s
- kon (MIC2): NM/1.05E+05 1/Ms
- Kd (CD33xMIC7): 8.3e-09 M

Compound: COc1cc(-c2cn(C)c(=O)c3cnccc23)cc(OC)c1CN1CCN(CCCCCOc2cc(-c3scnc3C)ccc2CNC(=O)[C@@H]2C[C@@H](O)CN2C(=O)[C@@H](NC(=O)C2(F)CC2)C(C)(C)C)CC1 [VZ185]
- Kd (MIC2): > 1000 nM

Compound: CCCOc1cccc(Oc2cc3c(cc2NS(=O)(=O)c2cccc(C(=O)NCCOCCOCCOCC(=O)N[C@H](C(=O)N4C[C@H](O)C[C@H]4C(=O)NCc4ccc(-c5scnc5C)cc4)C(C)(C)C)c2)n(C)c(=O)n3C)c1 [dTRIM24]
- Kd (MIC2): 0.42 nM
- koff (MIC2): NM/1.64E−04 1/s
- kon (MIC2): NM/3.92E+05 1/Ms

Compound: CD33 Ab: parental CD33-binding antibody (gemtuzumab CDRs, IgG4) without VHH
- AUC0-inf [1]: 219000 µg·h/mL
- Cl [1]: 3.36 mL/day/kg
- Cmax [1]: 810 µg/mL
- Vss [1]: 0.0742 L/kg
- t½ [1]: 237.0 h
